Measured values from patent US20020137929A1, “1 - (3-heterocyclylphenyl) isothiourea, -isourea, -guanidine and -amidine herbicidal agents” (Intellectual Property Department, BASF Aktiengesellschaft, priority 1998, published 2002).

Tests used:
ABUTH (Velvetleaf) [1] = assay: Preemergence herbicidal evaluation; format: in vivo, Abutilon theophrasti; conditions: rated 4-5 weeks after treatment
How it was run: (§1)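 Preemergence soil application of compound, sprayed in aqueous acetone at rates equivalent to about 0.0156 to 0.500 kg per hectare onto freshly sown cups. Plant response was judged by eye on a 0-9 scale four to five weeks later.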

ABUTH (Velvetleaf) [2] = assay: Postemergence herbicidal evaluation; format: in vivo, Abutilon theophrasti
How it was run: (§2)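 ~2-wk seedlings; postemergence spray, 40 psi; vehicle 1:1 acetone:water + 0.5% Tween 20; rate ≈0.0156–0.500 kg/ha; greenhouse hold; scored 4–5 wk after treatment, 0–9 scale vs control; repeat tests averaged.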

SETVI (Foxtail, Green) = assay: Postemergence herbicidal evaluation; format: in vivo, Setaria viridis
How it was run: as §2

[3] = test system: GLXMAW (Soybean, Williams); assay: Preemergence herbicidal evaluation; format: in vivo, Glycine max, (L.) Merr. cv Williams; conditions: rated 4-5 weeks after treatment
How it was run: as §1

ZEAMX (Corn, Field) [4] = assay: Postemergence herbicidal evaluation; format: in vivo, Zea mays
How it was run: as §2

[5] = test system: TRZAWR (Wheat, Winter, cv Riband); assay: Preemergence herbicidal evaluation; format: in vivo, Triticum aestivum; conditions: rated 4-5 weeks after treatment
How it was run: as §1

[6] = test system: IPOHE (Morningglory, Ivyleaf); assay: Preemergence herbicidal evaluation; format: in vivo, Ipomoea hederacea; conditions: rated 4-5 weeks after treatment
How it was run: as §1

CYPSE (Flatsedge) = assay: Postemergence weed control under flooded paddy conditions; format: in vivo, Cyperus serotinus; conditions: postemergence weeds, 3-4 weeks after treatment
How it was run: (§3)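 Containers holding 3–5 cm weeds and rice at 1.5–2.5 leaves are flooded to 1.5–3 cm above soil. Compound in 50/50 v/v aqueous/acetone is then added directly to the water, about 0.0313–0.500 kg/ha. Plants are kept in the greenhouse and rated 0–9 visually at 3–4 weeks.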

ECHCG (Barnyardgrass) [7] = assay: Postemergence herbicidal evaluation; format: in vivo, Echinochloa crus-galli
How it was run: as §2

CYPIR (Rice Flatsedge) = assay: Postemergence weed control under flooded paddy conditions; format: in vivo, Cyperus iria; conditions: postemergence weeds, 3-4 weeks after treatment
How it was run: as §3

[8] = test system: CHEAL (Lambsquarters, Common); assay: Preemergence herbicidal evaluation; format: in vivo, Chenopodium album; conditions: rated 4-5 weeks after treatment
How it was run: as §1

CASOB (Sicklepod) = assay: Preemergence herbicidal evaluation; format: in vivo, Cassia obtusifolia; conditions: rated 4-5 weeks after treatment
How it was run: as §1

ECHCG (Barnyardgrass) [9] = assay: Preemergence herbicidal evaluation; format: in vivo, Echinochloa crus-galli; conditions: rated 4-5 weeks after treatment
How it was run: as §1

[10] = test system: IPOHE (Morningglory, Ivyleaf); assay: Postemergence herbicidal evaluation; format: in vivo, Ipomoea hederacea
How it was run: as §2

ORYSAT (Rice, Tebonnet) = assay: Postemergence herbicidal evaluation; format: in vivo, Oryza sativa, (L.) Tebonnet
How it was run: as §2

ZEAMX (Corn, Field) [11] = assay: Preemergence herbicidal evaluation; format: in vivo, Zea mays; conditions: rated 4-5 weeks after treatment
How it was run: as §1

[12] = test system: CHEAL (Lambsquarters, Common); assay: Postemergence herbicidal evaluation; format: in vivo, Chenopodium album
How it was run: as §2

## CCOC(=O)CN1C(=O)C(Cc2ccccc2OC)SC1=Nc1cc(-n2c(=O)cc(C(F)(F)F)n(C)c2=O)c(F)cc1Cl (stereo not drawn) [Compound 37, Ethyl 2-{{2-chloro-5-[3,6-dihydro-3-methyl-2,6-dioxo-4-(trifluoromethyl)-1(2H)-pyrimidinyl]-4-fluorophenyl}imino}-5-(o-methoxybenzyl)-4-oxo-3-thiazolidineacetate]
ABUTH (Velvetleaf) [1]; rate 0.1250 kg/ha
  Preemergence herbicidal rating ABUTH: 0.0
ABUTH (Velvetleaf) [1]; rate 0.2500 kg/ha
  Preemergence herbicidal rating ABUTH: 3.0
ABUTH (Velvetleaf) [2]; Rate 0.0158 kg/ha
  Postemergence herbicidal rating ABUTH: 9.0
ABUTH (Velvetleaf) [2]; Rate 0.0315 kg/ha
  Postemergence herbicidal rating ABUTH: 9.0
ABUTH (Velvetleaf) [2]; Rate 0.0630 kg/ha
  Postemergence herbicidal rating ABUTH: 9.0
SETVI (Foxtail, Green); Rate 0.0158 kg/ha
  Postemergence herbicidal rating SETVI: 0.0
SETVI (Foxtail, Green); Rate 0.0315 kg/ha
  Postemergence herbicidal rating SETVI: 0.0
SETVI (Foxtail, Green); Rate 0.0630 kg/ha
  Postemergence herbicidal rating SETVI: 0.0
[3]; rate 0.1250 kg/ha
  Preemergence herbicidal rating GLXMAW: 0.0
[3]; rate 0.2500 kg/ha
  Preemergence herbicidal rating GLXMAW: 0.0
ZEAMX (Corn, Field) [4]; Rate 0.0158 kg/ha
  Postemergence herbicidal rating ZEAMX: 3.5
ZEAMX (Corn, Field) [4]; Rate 0.0315 kg/ha
  Postemergence herbicidal rating ZEAMX: 4.0
ZEAMX (Corn, Field) [4]; Rate 0.0630 kg/ha
  Postemergence herbicidal rating ZEAMX: 4.0
[5]; rate 0.1250 kg/ha
  Preemergence herbicidal rating TRZAWR: 0.0
[5]; rate 0.2500 kg/ha
  Preemergence herbicidal rating TRZAWR: 0.0
[6]; rate 0.1250 kg/ha
  Preemergence herbicidal rating IPOHE: 0.0
[6]; rate 0.2500 kg/ha
  Preemergence herbicidal rating IPOHE: 0.0
CYPSE (Flatsedge); rate 0.0313 kg/ha
  Herbicidal rating CYPSE: 0.0
CYPSE (Flatsedge); rate 0.0625 kg/ha
  Herbicidal rating CYPSE: 0.0
CYPSE (Flatsedge); rate 0.1250 kg/ha
  Herbicidal rating CYPSE: 0.0
CYPSE (Flatsedge); rate 0.2500 kg/ha
  Herbicidal rating CYPSE: 0.0
ECHCG (Barnyardgrass) [7]; Rate 0.0158 kg/ha
  Postemergence herbicidal rating ECHCG: 0.0
ECHCG (Barnyardgrass) [7]; Rate 0.0315 kg/ha
  Postemergence herbicidal rating ECHCG: 0.0
ECHCG (Barnyardgrass) [7]; Rate 0.0630 kg/ha
  Postemergence herbicidal rating ECHCG: 0.0
CYPIR (Rice Flatsedge); rate 0.0313 kg/ha
  Herbicidal rating CYPIR: 0.0
CYPIR (Rice Flatsedge); rate 0.0625 kg/ha
  Herbicidal rating CYPIR: 0.0
CYPIR (Rice Flatsedge); rate 0.1250 kg/ha
  Herbicidal rating CYPIR: 0.0
CYPIR (Rice Flatsedge); rate 0.2500 kg/ha
  Herbicidal rating CYPIR: 0.0
[8]; rate 0.1250 kg/ha
  Preemergence herbicidal rating CHEAL: 9.0
[8]; rate 0.2500 kg/ha
  Preemergence herbicidal rating CHEAL: 9.0
CASOB (Sicklepod); rate 0.1250 kg/ha
  Preemergence herbicidal rating CASOB: 0.0
CASOB (Sicklepod); rate 0.2500 kg/ha
  Preemergence herbicidal rating CASOB: 0.0
ECHCG (Barnyardgrass) [9]; rate 0.1250 kg/ha
  Preemergence herbicidal rating ECHCG: 0.0
ECHCG (Barnyardgrass) [9]; rate 0.2500 kg/ha
  Preemergence herbicidal rating ECHCG: 0.0
[10]; Rate 0.0158 kg/ha
  Postemergence herbicidal rating IPOHE: 9.0
[10]; Rate 0.0315 kg/ha
  Postemergence herbicidal rating IPOHE: 9.0
[10]; Rate 0.0630 kg/ha
  Postemergence herbicidal rating IPOHE: 9.0
ORYSAT (Rice, Tebonnet); Rate 0.0158 kg/ha
  Postemergence herbicidal rating ORYSAT: 0.5
ORYSAT (Rice, Tebonnet); Rate 0.0315 kg/ha
  Postemergence herbicidal rating ORYSAT: 1.0
ORYSAT (Rice, Tebonnet); Rate 0.0630 kg/ha
  Postemergence herbicidal rating ORYSAT: 1.5
ZEAMX (Corn, Field) [11]; rate 0.1250 kg/ha
  Preemergence herbicidal rating ZEAMX: 0.0
ZEAMX (Corn, Field) [11]; rate 0.2500 kg/ha
  Preemergence herbicidal rating ZEAMX: 0.0
[12]; Rate 0.0158 kg/ha
  Postemergence herbicidal rating CHEAL: 3.0
[12]; Rate 0.0315 kg/ha
  Postemergence herbicidal rating CHEAL: 3.0
[12]; Rate 0.0630 kg/ha
  Postemergence herbicidal rating CHEAL: 3.0
